Each molecule was assayed against USP30 (Homo sapiens (Human), UniProt Q70CQ3) (assay: USP30 biochemical IC50 assay (fluorescence polarisation)). Details: enzyme and compound incubated 30 min at room temp; TAMRA labelled peptide-ubiquitin substrate 50 nM; read after 2 hr incubation; read-out: IC50 range.
USP30, sequence (Q70CQ3 57-517): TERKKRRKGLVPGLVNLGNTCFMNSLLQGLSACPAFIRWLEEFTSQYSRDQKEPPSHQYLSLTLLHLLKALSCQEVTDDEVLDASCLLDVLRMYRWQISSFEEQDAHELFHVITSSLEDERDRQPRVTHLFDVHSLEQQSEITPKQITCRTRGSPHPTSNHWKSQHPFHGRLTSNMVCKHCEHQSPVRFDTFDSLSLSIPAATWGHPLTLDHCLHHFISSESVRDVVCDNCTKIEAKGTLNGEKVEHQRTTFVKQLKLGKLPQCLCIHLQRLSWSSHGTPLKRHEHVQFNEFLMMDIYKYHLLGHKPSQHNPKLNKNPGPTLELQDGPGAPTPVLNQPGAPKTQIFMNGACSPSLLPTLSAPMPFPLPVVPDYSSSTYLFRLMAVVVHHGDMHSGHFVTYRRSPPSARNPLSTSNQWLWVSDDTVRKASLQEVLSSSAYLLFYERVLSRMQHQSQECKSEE
Protocol: USP30 Biochemical IC50 Assay
Dilution plates were prepared at 21 times the final concentration ([…] for a final concentration of 100 μM) in 50% DMSO in a 96-well polypropylene V-bottom plate (Greiner #651201). A typical 8-point dilution series to be 100, 30, 10, 3, 1, 0.3, 0.1, […].
Reactions were performed in duplicate in black 384 well plates (small volume, Greiner 784076) in a final reaction volume of 21 μl. Either 1 μl of 50% DMSO or diluted compound was added to the plate. USP30 was diluted in reaction buffer (40 mM Tris, pH 7.5, 0.005% Tween 20, 0.5 mg/ml BSA, 5 mM beta-mercaptoethanol) to the equivalent of 0.05 µl/well and 10 μl of diluted USP30 was added to the compound. Enzyme and compound were incubated for 30 min at room temp. Reactions were initiated by the addition of 50 nM of TAMRA labelled peptide linked to ubiquitin via an iso-peptide bond as fluorescence polarisation substrate. Reactions were read immediately after addition of substrate and following a 2 hr incubation at room temperature. Readings were performed on a Pherastar Plus (BMG Labtech). λ Excitation 540 nm; λ Emission 590 nm.
Molecule `C[C@H]1CN(C#N)C[C@@H]1C(=O)N1CCc2cc(-c3ccccc3)cnc21` (racemic) [Example 52, Trans-3-methyl-4-(5-phenyl-2,3-dihydro-1H-pyrrolo[2,3-b]pyridine-1-carbonyl)-pyrrolidine-1-carbonitrile] has an IC50 of 100 to 1000 nM. `N#CN1CCC(F)(C(=O)N2CCc3cc(-c4cccnc4)ccc32)C1` (racemic) [Example 57, 3-Fluoro-3-(5-(pyridin-3-yl)indoline-1-carbonyl)pyrrolidine-1-carbonitrile] gave an IC50 of 100 to 1000 nM. For `C[C@@H]1CN(C#N)C[C@H]1C(=O)N1CCc2cc(-c3ccccc3Cl)ccc21` (relative stereo) [Example 13, (trans)-3-(5-(2-Chlorophenyl)indoline-1-carbonyl)-4-methylpyrrolidine-1-carbonitrile], the IC50 was 100 to 1000 nM. For `CN(C(=O)[C@H]1CN(C#N)C[C@@H]1CO)c1ncc(-c2ccccc2)s1` (relative stereo) [Example 34, (trans)-1-Cyano-4-(hydroxymethyl)-N-methyl-N-(5-phenylthiazol-2-yl)pyrrolidine-3-carboxamide], the IC50 was 100 to 1000 nM. Molecule `N#CN1C[C@H]2CN(c3ncc(-c4ccccc4)s3)C(=O)[C@H]2C1` (relative stereo) [Example 48, (cis)-4-Oxo-5-(5-phenylthiazol-2-yl)hexahydropyrrolo[3,4-c]pyrrole-2(1H)-carbonitrile] has an IC50 of 1000 to 10000 nM. With `CN(C(=O)C1CCN(C#N)C1)c1ccc(-c2ccccc2)cn1` (stereo in doubt) [Example 31, (S)-1-Cyano-N-methyl-N-(5-phenylpyridin-2-yl)pyrrolidine-3-carboxamide] the IC50 was 1000 to 10000 nM. With `CCN(C(=O)C1CCN(C#N)C1)c1nc(-c2ccccc2)cs1` (stereo not drawn) [Example 1, 1-Cyano-N-ethyl-N-(4-phenylthiazol-2-yl)pyrrolidine-3-carboxamide] the IC50 was 1000 to 10000 nM. `CCN(C(=O)C1CCN(C#N)C1)c1ncc(-c2ccccc2)s1` (stereo not drawn) [Example 2, 1-cyano-N-ethyl-N-(5-phenylthiazol-2-yl)pyrrolidine-3-carboxamide] gave an IC50 of 1000 to 10000 nM. Work on `CN(C(=O)[C@H]1CCN(C#N)C1)c1ncc(-c2ccccc2)s1` [Example 3, (S)-1-Cyano-N-methyl-N-(5-phenylthiazol-2-yl)pyrrolidine-3-carboxamide] yielded an IC50 of 100 to 1000 nM. With `CN(C(=O)[C@H]1CCN(C#N)C1)c1cc(-c2ccccc2)ccn1` [Example 4, (S)-1-Cyano-N-methyl-N-(4-phenylpyridin-2-yl)pyrrolidine-3-carboxamide] the IC50 was 1000 to 10000 nM. Work on `CN(C(=O)[C@H]1CCN(C#N)C1)c1cccc(-c2ccccc2)n1` [Example 5, (S)-1-Cyano-N-methyl-N-(6-phenylpyridin-2-yl)pyrrolidine-3-carboxamide] yielded an IC50 of 1000 to 10000 nM. `CC(C)N(C(=O)C1CCN(C#N)C1)c1nc(-c2ccccc2)cs1` (stereo not drawn) [Example 7, 1-Cyano-N-isopropyl-N-(4-phenylthiazol-2-yl)pyrrolidine-3-carboxamide] showed an IC50 of 1000 to 10000 nM. `CN(C(=O)C1(F)CCN(C#N)C1)c1ncc(-c2ccccc2)s1` (stereo not drawn) [Example 8, 1-Cyano-3-fluoro-N-methyl-N-(5-phenylthiazol-2-yl)pyrrolidine-3-carboxamide] gave an IC50 of 100 to 1000 nM. `CN(C(=O)C1(F)CCN(C#N)C1)c1nc2ccccc2s1` (stereo not drawn) [Example 9, N-(Benzo[d]thiazol-2-yl)-1-cyano-3-fluoro-N-methylpyrrolidine-3-carboxamide] showed an IC50 of 100 to 1000 nM. For `N#CN1CC[C@H](C(=O)N2CCc3c(-c4ccccc4)cccc32)C1` [Example 10, (S)-3-(4-Phenylindoline-1-carbonyl)pyrrolidine-1-carbonitrile], the IC50 was 100 to 1000 nM. `N#CN1CC[C@@H](C(=O)N2CCc3ccc(-c4ccccc4)cc32)C1` [Example 11, (R)-3-(6-Phenylindoline-1-carbonyl)pyrrolidine-1-carbonitrile] showed an IC50 of 1000 to 10000 nM. `N#CN1CC[C@H](C(=O)N2CCc3cc(-c4cccc(Cl)c4)ccc32)C1` [Example 12, (S)-3-(5-(3-Chlorophenyl)indoline-1-carbonyl)pyrrolidine-1-carbonitrile] gave an IC50 of 100 to 1000 nM. `N#CN1CCC(F)(C(=O)N2CCc3cc(-c4ccccc4)ccc32)C1` (stereo not drawn) [Example 14, 3-Fluoro-3-(5-phenylindoline-1-carbonyl)pyrrolidine-1-carbonitrile] gave an IC50 of 100 to 1000 nM. Work on `N#CN1CCC(F)(C(=O)N2CCc3ccc(-c4ccccc4)cc32)C1` (stereo not drawn) [Example 15, 3-Fluoro-3-(6-phenylindoline-1-carbonyl)pyrrolidine-1-carbonitrile] yielded an IC50 of 100 to 1000 nM. `N#CN1CCC(F)(C(=O)N2CCc3ccc(-c4ccccc4)nc32)C1` (stereo not drawn) [Example 16, 3-Fluoro-3-(6-phenyl-2,3-dihydro-1-H-pyrrolo[2,3-b]pyridine-1-carbonyl)pyrrolidine-1-carbonitrile] gave an IC50 of 100 to 1000 nM. Molecule `N#CN1CC[C@@H](C(=O)N2CCc3cc(-c4ccccc4)ccc32)C1` [Example 17, (R)-3-(5-Phenylindoline-1-carbonyl)pyrrolidine-1-carbonitrile] has an IC50 of 1000 to 10000 nM. Molecule `N#CN1CC[C@H](C(=O)N2CCc3cc(-c4ccccc4)ccc32)C1` [Example 18, (S)-3-(5-Phenylindoline-1-carbonyl)pyrrolidine-1-carbonitrile] has an IC50 of 100 to 1000 nM. Work on `C[C@@H]1CN(C#N)C[C@H]1C(=O)N1CCc2cc(-c3ccccc3)ccc21` [Example 19, (3S,4S)-3-Methyl-4-(5-phenylindoline-1-carbonyl)pyrrolidine-1-carbonitrile] yielded an IC50 of 100 to 1000 nM. `C[C@H]1CN(C#N)C[C@@H]1C(=O)N1CCc2cc(-c3ccccc3)ccc21` [Example 20, (3R,4R)-3-Methyl-4-(5-phenylindoline-1-carbonyl)pyrrolidine-1-carbonitrile] showed an IC50 of 1000 to 10000 nM. Work on `N#CN1CC[C@H](C(=O)N2CCc3cc(-c4ccccc4)cnc32)C1` [Example 21, (S)-3-(5-Phenyl-2,3-dihydro-1H-pyrrolo[2,3-b]pyridine-1-carbonyl)pyrrolidine-1-carbonitrile] yielded an IC50 of 1000 to 10000 nM. Molecule `N#CN1CCC(F)(C(=O)N2CCc3cc(-c4ccccc4)cnc32)C1` (stereo not drawn) [Example 22, 3-Fluoro-3-(5-phenyl-2,3-dihydro-1H-pyrrolo[2,3-b]pyridine-1-carbonyl)pyrrolidine-1-carbonitrile] has an IC50 of 100 to 1000 nM. `N#CN1CC[C@H](C(=O)N2CCCc3cc(-c4ccccc4)ccc32)C1` [Example 23, (S)-3-(6-Phenyl-1,2,3,4-tetrahydroquinoline-1-carbonyl)pyrrolidine-1-carbonitrile] was tested, and the IC50 was 100 to 1000 nM. `N#CN1CC[C@@H](C(=O)N2CCOc3cc(-c4ccccc4)ccc32)C1` [Example 24, (R)-3-(7-Phenyl-3,4-dihydro-2H-benzo[b][1,4]oxazine-4-carbonyl)pyrrolidine-1-carbonitrile] was tested, and the IC50 was 100 to 1000 nM. With `N#CN1CC[C@@H](C(=O)N2CCOc3ccc(-c4ccccc4)cc32)C1` [Example 25, (R)-3-(6-Phenyl-3,4-dihydro-2H-benzo[b][1,4]oxazine-4-carbonyl)pyrrolidine-1-carbonitrile] the IC50 was 100 to 1000 nM. Molecule `N#CN1CC[C@@H](C(=O)N2CCOc3c(-c4ccccc4)cccc32)C1` [Example 26, (R)-3-(8-Phenyl-3,4-dihydro-2H-benzo[b][1,4]oxazine-4-carbonyl)pyrrolidine-1-carbonitrile] has an IC50 of 1000 to 10000 nM. Molecule `N#CN1CC[C@H](C(=O)N2CCc3c(-c4ccccc4)ccnc32)C1` [Example 27, (S)-3-(4-Phenyl-2,3-dihydro-1H-pyrrolo[2,3-b]pyridine-1-carbonyl)pyrrolidine-1-carbonitrile] has an IC50 of 100 to 1000 nM. `N#CN1CC[C@H](C(=O)N2CCc3c(-c4cccc(Cl)c4)ccnc32)C1` [Example 28, (S)-3-(4-(3-Chlorophenyl)-2,3-dihydro-1H-pyrrolo[2,3-b]pyridine-1-carbonyl)pyrrolidine-1-carbonitrile] was tested, and the IC50 was 1000 to 10000 nM. Molecule `Cn1cc(-c2cc3c(cc2C#N)N(C(=O)[C@H]2CCN(C#N)C2)CC3)cn1` [Example 29, (S)-1-(1-Cyanopyrrolidine-3-carbonyl)-5-(1-methyl-1H-pyrazol-4-yl)indoline-6-carbonitrile] has an IC50 of 1000 to 10000 nM. Molecule `N#CN1CC[C@@H](C(=O)N2CCOc3cc(-n4cccn4)ccc32)C1` [Example 30, (R)-3-(7-(1H-Pyrazol-1-yl)-3,4-dihydro-2H-benzo[b][1,4]oxazine-4-carbonyl)-pyrrolidine-1-carbonitrile] has an IC50 of 1000 to 10000 nM. For `CN(C(=O)[C@@H]1CCN(C#N)C1)c1cc(-c2ccccc2)cnn1` [Example 32, (R)-1-Cyano-N-methyl-N-(5-phenylpyridazin-3-yl)pyrrolidine-3-carboxamide], the IC50 was 1000 to 10000 nM. Work on `CN(C(=O)C1(F)CCN(C#N)C1)c1cc(-c2ccccc2)on1` (stereo not drawn) [Example 33, 1-Cyano-3-fluoro-N-methyl-N-(5-phenylisoxazol-3-yl)pyrrolidine-3-carboxamide] yielded an IC50 of 100 to 1000 nM. Molecule `N#CN1CCC(F)(C(=O)N2CCc3cc(-c4ccnn4Cc4ccccc4)ccc32)C1` (stereo not drawn) [Example 35, 3-(5-(1-Benzyl-1H-pyrazol-5-yl)indoline-1-carbonyl)-3-fluoropyrrolidine-1-carbonitrile] has an IC50 of 1000 to 10000 nM. Molecule `Cn1nccc1-c1ccc2c(c1)CCN2C(=O)C1(F)CCN(C#N)C1` (stereo not drawn) [Example 36, 3-Fluoro-3-(5-(1-methyl-1H-pyrazol-5-yl)indoline-1-carbonyl)pyrrolidine-1-carbonitrile] has an IC50 of 1000 to 10000 nM. With `CN1CCN(c2ccc(-c3ccc4c(c3)CCN4C(=O)C3(F)CCN(C#N)C3)cc2)CC1` (stereo not drawn) [Example 37, 3-Fluoro-3-(5-(4-(4-methylpiperazin-1-yl)phenyl)indoline-1-carbonyl)pyrrolidine-1-carbonitrile] the IC50 was 100 to 1000 nM.
